The values that follow come from patent publication EP4467141A1, “PYRAZOLO-QUINOLINES AS SELECTIVE INHIBITORS OF GENOTOXIC STRESS-INDUCED IKK/NF- KB PATHWAYS FOR CANCER THERAPY” (Max-Delbrück-Centrum für Molekulare Medizin in der …, priority 2023, dated 2024).

What all share (experiment): Kinase panel study
Holding throughout (format): biochemical
Common to all, as to conditions: read-out: Percentage of inhibition; for inhibition at 1 µM: 1000nM; for inhibition at 10 µM: 10000nM

For one experiment, the target named is T1, BMX (Homo sapiens, UniProt P51813).
T1 construct: purchased Thermo Fisher Scientific
T1 sequence (P51813 1-675): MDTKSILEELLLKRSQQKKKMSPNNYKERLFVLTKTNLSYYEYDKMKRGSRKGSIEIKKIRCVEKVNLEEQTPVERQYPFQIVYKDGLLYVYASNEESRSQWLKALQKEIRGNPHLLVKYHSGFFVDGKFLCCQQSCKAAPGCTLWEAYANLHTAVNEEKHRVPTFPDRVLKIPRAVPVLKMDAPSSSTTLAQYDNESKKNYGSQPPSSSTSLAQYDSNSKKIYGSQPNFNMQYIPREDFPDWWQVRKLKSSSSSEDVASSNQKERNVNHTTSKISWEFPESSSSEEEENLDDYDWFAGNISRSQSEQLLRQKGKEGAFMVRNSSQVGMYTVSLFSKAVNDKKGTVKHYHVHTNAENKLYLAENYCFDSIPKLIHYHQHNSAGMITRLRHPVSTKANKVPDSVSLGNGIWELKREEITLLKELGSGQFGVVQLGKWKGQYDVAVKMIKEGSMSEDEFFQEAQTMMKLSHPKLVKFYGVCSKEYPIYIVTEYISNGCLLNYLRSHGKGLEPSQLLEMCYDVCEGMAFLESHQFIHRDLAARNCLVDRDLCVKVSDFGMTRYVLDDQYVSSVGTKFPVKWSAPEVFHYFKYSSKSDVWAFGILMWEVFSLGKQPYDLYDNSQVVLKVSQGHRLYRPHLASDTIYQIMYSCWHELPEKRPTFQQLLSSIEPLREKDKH
The method, boiled down: (§1)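 Lead compounds and derivatives were profiled by ZLyte or Adapta in vitro kinase assays. Each value reports inhibition percentage at one of two concentrations, 1 µM or 10 µM.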

Another experiment addresses T2, PAK3 (Homo sapiens, UniProt O75914).
T2 construct: purchased Thermo Fisher Scientific
In outline:
as §1

Another experiment has as its target T3, ROCK1 (Homo sapiens, UniProt Q13464).
T3 construct: purchased Thermo Fisher Scientific
In outline:
as §1

A further experiment addresses T4, PI4KA (PI4K alpha) (Homo sapiens, UniProt P42356).
T4 construct: purchased Thermo Fisher Scientific
In outline: as §1

Another experiment concerns the target T5, MARK4 (Homo sapiens, UniProt Q96L34).
T5 construct: purchased Thermo Fisher Scientific
T5 sequence (Q96L34 1-752): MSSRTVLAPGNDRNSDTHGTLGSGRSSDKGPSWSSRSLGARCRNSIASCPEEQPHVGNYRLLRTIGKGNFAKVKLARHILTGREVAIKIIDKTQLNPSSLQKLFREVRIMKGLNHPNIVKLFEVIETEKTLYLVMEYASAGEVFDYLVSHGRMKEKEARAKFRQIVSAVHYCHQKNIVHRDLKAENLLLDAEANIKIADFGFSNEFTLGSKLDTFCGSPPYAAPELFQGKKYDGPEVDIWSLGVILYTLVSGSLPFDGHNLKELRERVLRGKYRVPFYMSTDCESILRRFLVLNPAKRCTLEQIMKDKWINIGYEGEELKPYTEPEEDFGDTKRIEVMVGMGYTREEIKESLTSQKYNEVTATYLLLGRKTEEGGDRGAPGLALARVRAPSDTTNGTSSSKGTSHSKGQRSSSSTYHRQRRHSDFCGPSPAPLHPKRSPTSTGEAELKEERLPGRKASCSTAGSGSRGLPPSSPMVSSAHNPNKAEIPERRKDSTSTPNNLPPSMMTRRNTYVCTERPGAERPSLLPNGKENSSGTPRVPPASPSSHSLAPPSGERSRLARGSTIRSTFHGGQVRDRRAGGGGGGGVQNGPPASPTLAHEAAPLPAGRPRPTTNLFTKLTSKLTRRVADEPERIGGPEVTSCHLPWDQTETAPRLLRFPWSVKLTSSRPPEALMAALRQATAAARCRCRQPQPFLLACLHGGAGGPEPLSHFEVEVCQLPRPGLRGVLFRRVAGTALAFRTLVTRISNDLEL
In outline:
as §1

The target in the next experiment is T6, ABL2 (Arg) (Homo sapiens, UniProt P42684).
T6 construct: purchased Thermo Fisher Scientific
The method, boiled down:
as §1

The target in another experiment is T7, CAMK1D (CaMKI delta) (Homo sapiens, UniProt Q8IU85).
T7 construct: purchased Thermo Fisher Scientific
In outline:
as §1

T3 sequence (Q13464 whole entry): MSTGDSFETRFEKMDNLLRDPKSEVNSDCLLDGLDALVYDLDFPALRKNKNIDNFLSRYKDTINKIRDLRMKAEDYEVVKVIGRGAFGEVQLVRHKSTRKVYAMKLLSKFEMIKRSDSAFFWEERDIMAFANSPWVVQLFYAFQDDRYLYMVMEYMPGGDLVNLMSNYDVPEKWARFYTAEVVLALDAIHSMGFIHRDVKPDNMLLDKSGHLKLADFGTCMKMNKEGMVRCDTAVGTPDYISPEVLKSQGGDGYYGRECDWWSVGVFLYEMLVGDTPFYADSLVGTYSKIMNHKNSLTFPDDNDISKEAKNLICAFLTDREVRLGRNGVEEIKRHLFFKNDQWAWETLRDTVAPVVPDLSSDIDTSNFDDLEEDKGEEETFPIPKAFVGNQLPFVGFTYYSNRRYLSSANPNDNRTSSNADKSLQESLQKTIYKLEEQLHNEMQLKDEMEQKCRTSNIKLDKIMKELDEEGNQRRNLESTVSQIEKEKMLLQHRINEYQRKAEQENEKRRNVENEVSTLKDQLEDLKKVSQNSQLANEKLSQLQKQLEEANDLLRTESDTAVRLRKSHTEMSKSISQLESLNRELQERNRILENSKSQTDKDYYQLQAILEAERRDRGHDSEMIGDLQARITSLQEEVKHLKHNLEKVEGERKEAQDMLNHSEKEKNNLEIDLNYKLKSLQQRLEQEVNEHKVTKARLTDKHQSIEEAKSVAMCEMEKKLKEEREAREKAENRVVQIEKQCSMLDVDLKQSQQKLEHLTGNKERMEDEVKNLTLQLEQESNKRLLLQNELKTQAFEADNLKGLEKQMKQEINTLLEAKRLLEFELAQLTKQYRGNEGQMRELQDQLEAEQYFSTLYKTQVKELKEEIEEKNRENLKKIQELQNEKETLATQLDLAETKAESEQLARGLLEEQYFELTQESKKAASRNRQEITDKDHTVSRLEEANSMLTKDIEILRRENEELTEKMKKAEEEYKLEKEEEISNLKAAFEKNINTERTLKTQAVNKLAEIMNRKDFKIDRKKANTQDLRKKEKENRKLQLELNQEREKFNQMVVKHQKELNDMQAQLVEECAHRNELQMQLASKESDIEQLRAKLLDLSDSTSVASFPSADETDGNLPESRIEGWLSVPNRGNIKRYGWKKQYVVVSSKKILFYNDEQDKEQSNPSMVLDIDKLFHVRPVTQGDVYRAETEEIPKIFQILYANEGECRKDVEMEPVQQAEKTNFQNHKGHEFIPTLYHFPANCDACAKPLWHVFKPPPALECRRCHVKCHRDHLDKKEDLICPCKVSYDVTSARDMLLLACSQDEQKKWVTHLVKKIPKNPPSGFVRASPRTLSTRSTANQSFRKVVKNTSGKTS
T2 sequence (O75914 whole entry): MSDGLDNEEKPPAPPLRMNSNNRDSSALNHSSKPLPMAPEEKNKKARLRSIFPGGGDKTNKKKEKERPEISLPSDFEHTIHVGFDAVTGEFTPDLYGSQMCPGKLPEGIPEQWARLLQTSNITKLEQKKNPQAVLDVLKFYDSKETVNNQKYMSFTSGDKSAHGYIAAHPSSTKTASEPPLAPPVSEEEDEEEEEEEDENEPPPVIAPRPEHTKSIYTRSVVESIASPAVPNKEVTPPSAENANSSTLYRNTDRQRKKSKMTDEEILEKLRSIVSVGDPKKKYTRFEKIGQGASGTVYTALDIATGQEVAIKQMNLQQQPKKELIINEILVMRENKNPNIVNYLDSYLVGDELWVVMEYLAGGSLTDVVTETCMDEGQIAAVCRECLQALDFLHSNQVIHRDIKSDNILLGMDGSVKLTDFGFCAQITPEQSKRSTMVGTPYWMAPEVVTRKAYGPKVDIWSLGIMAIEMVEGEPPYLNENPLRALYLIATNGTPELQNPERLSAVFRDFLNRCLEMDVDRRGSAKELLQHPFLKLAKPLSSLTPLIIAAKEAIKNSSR
T6 sequence (P42684 whole entry): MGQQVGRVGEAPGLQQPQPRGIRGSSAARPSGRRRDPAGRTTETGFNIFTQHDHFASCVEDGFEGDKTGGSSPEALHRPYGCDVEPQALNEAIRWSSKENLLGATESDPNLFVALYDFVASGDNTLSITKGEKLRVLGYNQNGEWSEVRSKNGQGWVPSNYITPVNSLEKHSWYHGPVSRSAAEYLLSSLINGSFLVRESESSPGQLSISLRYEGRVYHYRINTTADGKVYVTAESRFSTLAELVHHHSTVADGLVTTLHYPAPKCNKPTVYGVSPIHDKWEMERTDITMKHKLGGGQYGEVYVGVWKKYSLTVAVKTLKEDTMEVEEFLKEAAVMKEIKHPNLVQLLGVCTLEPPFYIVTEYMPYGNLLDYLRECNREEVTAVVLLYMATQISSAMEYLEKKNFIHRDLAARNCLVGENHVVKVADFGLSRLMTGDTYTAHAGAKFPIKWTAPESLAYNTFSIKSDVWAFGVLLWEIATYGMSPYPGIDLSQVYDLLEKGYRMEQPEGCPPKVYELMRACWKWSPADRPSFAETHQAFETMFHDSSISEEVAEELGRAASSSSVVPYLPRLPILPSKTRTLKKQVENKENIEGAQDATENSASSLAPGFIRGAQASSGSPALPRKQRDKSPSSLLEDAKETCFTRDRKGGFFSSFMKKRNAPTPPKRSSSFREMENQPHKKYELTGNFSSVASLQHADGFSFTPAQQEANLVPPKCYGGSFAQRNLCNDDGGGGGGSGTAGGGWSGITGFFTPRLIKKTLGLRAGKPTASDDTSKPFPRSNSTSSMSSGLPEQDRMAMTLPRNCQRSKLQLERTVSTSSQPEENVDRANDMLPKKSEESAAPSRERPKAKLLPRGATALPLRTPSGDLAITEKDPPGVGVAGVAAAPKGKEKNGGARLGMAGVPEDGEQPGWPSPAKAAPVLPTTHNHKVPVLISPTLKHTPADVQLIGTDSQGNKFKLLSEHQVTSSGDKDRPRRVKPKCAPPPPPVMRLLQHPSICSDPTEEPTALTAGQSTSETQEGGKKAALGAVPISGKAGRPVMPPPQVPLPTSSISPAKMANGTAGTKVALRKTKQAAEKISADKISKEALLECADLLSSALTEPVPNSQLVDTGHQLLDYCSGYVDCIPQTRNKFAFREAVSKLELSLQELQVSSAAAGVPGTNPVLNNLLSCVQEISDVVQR

What is called inhibition is the change of the read-out against control, counted positive when it falls. Take `COc1ccc2c(c1OC)c(=O)n1c3ccc(O)cc3c3ccnc2c31` [MW01, 5-Hydroxy-10,11-dimethoxy-9H-benzo[c]indolo[3,2,1-ij][1,5]naphthyridin-9-one]: the inhibition at 1 µM on BMX was -8%; at PAK3 it was 10%; at ROCK1, 0%; at PI4KA (PI4K alpha), 13%; on MARK4 it was 9%; at ABL2 (Arg), 9%. In addition, the inhibition at 1 µM at CAMK1D (CaMKI delta) is 5%. Besides, the inhibition at 10 µM on BMX is 6%; on PAK3, 15%; at ROCK1, 13%; on PI4KA (PI4K alpha) it was 23%; at MARK4 it was 15%; on ABL2 (Arg), 21%. Also, on CAMK1D (CaMKI delta), the inhibition at 10 µM turned out to be 9%.

In the case of `COc1ccc2cc3c(N)nn(C(=O)c4cccc(N(C)C)c4)c3nc2c1` [MW05, (3-Amino-7-methoxypyrazolo[3,4-b]quinolin-1-yl)-[3-(dimethylamino)phenyl]methanone], the inhibition at 1 µM is -10% on BMX; 26% on PAK3; -4% at ROCK1; 1% at PI4KA (PI4K alpha); -3% on MARK4; 5% on ABL2 (Arg). Moreover, the inhibition at 1 µM at CAMK1D (CaMKI delta) stood at 1%. The inhibition at 10 µM on BMX is 4%; at PAK3, 15%; on ROCK1 it was -5%; at PI4KA (PI4K alpha) it was -1%; at MARK4, -10%; at ABL2 (Arg) it was 2%. On CAMK1D (CaMKI delta), the inhibition at 10 µM was -1%.
